Source: ChEMBL document CHEMBL5143567, “Dose Number as a Tool to Guide Lead Optimization for Orally Bioavailable Compounds in Drug Discovery” (J Med Chem, 2022)
≈ marks a conversion by molar mass, not a printed value.

How the values were obtained:
[1] = Permeability in human Caco-2 cells; type: ADME, cell-based; conditions: read-out: permeability
[2] = physchem; conditions: phosphate buffer, pH 6.8
Description: Aqueous solubility of the compound in phosphate buffer at pH 6.8 measured after 72 hrs by UV-Vis spectrophotometer

[3] = Aqueous solubility of the compound at pH 1.8; type: physicochemical; conditions: buffer
[4] = Aqueous solubility of the compound at pH 5; type: physicochemical; conditions: buffer
[5] = Permeability in MDCK-II cells; type: ADME, cell-based, Canis lupus familiaris; conditions: dog, read-out: permeability
[6] = Aqueous solubility of the compound; type: physicochemical; conditions: buffer
[7] = Aqueous solubility of the compound in FaSSIF; type: physicochemical
[8] = Permeability in pig LLC-PK1 cells; type: ADME, cell-based, Sus scrofa; conditions: read-out: permeability
[9] = Aqueous solubility of the compound in buffer; type: physicochemical
[10] = Permeability in rat jejunum; type: ADME, tissue-based; conditions: read-out: permeability
[11] = Aqueous solubility of the compound in FaSSIF at pH 6.5 measured by dissolution tester; type: physicochemical

CCC[C@H](NC(=O)[C@@H]1[C@H]2CCC[C@H]2CN1C(=O)[C@@H](NC(=O)[C@@H](NC(=O)c1cnccn1)C1CCCCC1)C(C)(C)C)C(=O)C(=O)NC1CC1
Papp [1]: > 4.4 ×10⁻⁶ cm/s | solubility at 72 h [2]: 4.7 µg/mL (≈ 6.91 µM)

COC(=O)N[C@H](C(=O)N1CCC[C@H]1c1nc(-c2ccc3c(c2)O[C@@H](c2ccccc2)n2c-3cc3cc(-c4c[nH]c([C@@H]5CCCN5C(=O)[C@@H](NC(=O)OC)C(C)C)n4)ccc32)c[nH]1)C(C)C [ELBASVIR]
solubility [3]: > 5 µg/mL | solubility [4]: 50 µg/mL (≈ 56.7 µM) | Papp [5]: 0.8 ×10⁻⁶ cm/s

Cc1cc(C#N)cc(C)c1Oc1nc(Nc2ccc(C#N)cc2)nc(N)c1Br [ETRAVIRINE]
solubility [6]: < 1 µg/mL

C=C[C@@H]1C[C@]1(NC(=O)[C@@H]1C[C@@H]2CN1C(=O)[C@H](C(C)(C)C)NC(=O)O[C@@H]1C[C@H]1CCCCCc1nc3ccc(OC)cc3nc1O2)C(=O)NS(=O)(=O)C1CC1 [GRAZOPREVIR ANHYDROUS]
solubility [7]: < 7 µg/mL | Papp [8]: 19 ×10⁻⁶ cm/s

CC(C)(C)c1cc(C(C)(C)C)c(NC(=O)c2c[nH]c3ccccc3c2=O)cc1O [IVACAFTOR]
solubility [9]: < 0.05 µg/mL

COC(=O)N[C@H](C(=O)N1CCC[C@H]1c1nc2cc([C@H]3CC[C@H](c4cc5nc([C@@H]6CCCN6C(=O)[C@@H](NC(=O)OC)[C@@H](C)OC)[nH]c5cc4F)N3c3cc(F)c(N4CCC(c5ccc(F)cc5)CC4)c(F)c3)c(F)cc2[nH]1)[C@@H](C)OC [PIBRENTASVIR]
Papp [5]: < 1 ×10⁻⁶ cm/s

CC(C)c1nc(CN(C)C(=O)N[C@H](C(=O)N[C@@H](Cc2ccccc2)C[C@H](O)[C@H](Cc2ccccc2)NC(=O)OCc2cncs2)C(C)C)cs1 [RITONAVIR]
Papp [1]: 20 ×10⁻⁶ cm/s

Cc1ccc(-n2nccn2)c(C(=O)N2CCN(c3nc4cc(Cl)ccc4o3)CC[C@H]2C)c1 [SUVOREXANT]
solubility [7]: 9 µg/mL (≈ 20 µM) | Papp [8]: 22.8 ×10⁻⁶ cm/s

C=CC[C@@H]1/C=C(\C)C[C@H](C)C[C@H](OC)[C@H]2O[C@@](O)(C(=O)C(=O)N3CCCC[C@H]3C(=O)O[C@H](/C(C)=C/[C@@H]3CC[C@@H](O)[C@H](OC)C3)[C@H](C)[C@@H](O)CC1=O)[C@H](C)C[C@@H]2OC [TACROLIMUS ANHYDROUS]
solubility [6]: 1.3 µg/mL (≈ 1.62 µM) | Papp [10]: 18 ×10⁻⁶ cm/s

CCCS(=O)(=O)Nc1ccc(F)c(C(=O)c2c[nH]c3ncc(-c4ccc(Cl)cc4)cc23)c1F [VEMURAFENIB]
solubility [11]: 2 µg/mL (≈ 4.08 µM) | Papp [1]: 2.9 ×10⁻⁶ cm/s
